Assay results taken from patent US12329737B2, “Dendrilla membranosa compounds, derivatives thereof, and uses thereof” (UNIVERSITY OF SOUTH FLORIDA, priority 2018, dated 2025).
≈ marks a conversion by molar mass, not a printed value.

Columns and labels:
J774A.1 = assay: mammalian cytotoxicity assay; type: cell-based
[1] = tested on: multidrug resistant S. aureus biofilm; assay: minimum biofilm eradication concentration (MBEC), MRSA biofilm; type: cell-based; conditions: for MBEC90: 90% of population eradicated compared to no treatment
Description: Each sample tested in triplicate for all concentrations. Calculated based on no drug controls and represented as a log 10 scale. Error=±SEM. MBEC 90/50: level to which 90% or 50% of the population was eradicated compared to no treatment.

MRSA = assay: standard MRSA assay (MIC); type: cell-based; conditions: Staphylococcus aureus
MRSA biofilm = assay: standard biofilm assay; type: cell-based, Staphylococcus aureus

SMILES	Cytotoxicity (μM) against strain J774A.1 (J774A.1)	also measured
CO[C@H]1OC(=O)[C@H](C)c2c([C@@]3(C)CCCC(C)(C)C3)ccc(C=O)c21 [Compound 5, membranoid A]	54.6 µM	
CC(=O)O[C@@H]1OC2OC(=O)[C@H](C)c3c([C@@]4(C)CCCC(C)(C)C4)ccc1c32 (stereo partly drawn) [Compound 1, aplysulphurin]	12.3 µM	
CO[C@@H]1O[C@H](OC)c2c1ccc([C@@]1(C)CCCC(C)(C)C1)c2[C@@H](C)C(=O)O [Compound 8, membranoid D]	>133 µM	MRSA biofilm bioactivity [1]: lacked MRSA biofilm bioactivity
COC(=O)[C@H](C)c1c([C@@]2(C)CCCC(C)(C)C2)ccc2c1[C@H](O)OC2=O [Compound 12, membranoid Y]	>139 µM	
C[C@H]1C(=O)O[C@@H](O)c2c(C=O)ccc([C@@]3(C)CCCC(C)(C)C3)c21 [Compound 10, membranoid G]	>151 µM	
CC(=O)O[C@@H]1OC2OC(=O)[C@H](C)[C@@]34OO[C@@]([C@@]5(C)CCCC(C)(C)C5)(CCC1C23)O4 (stereo partly drawn) [Compound 18, Tetrahydroaplytrioxolane]		MRSA biofilm bioactivity [1]: lacked MRSA biofilm bioactivity
CC(=O)O[C@@H]1OC2OC(=O)[C@H](C)C3=C([C@@]4(C)CCCC(C)(C)C4)CCC1C32 (stereo partly drawn) [Compound 2, tetrahydroaplysulphurin]	>133 µM	
COC(=O)[C@H](C)c1c([C@@]2(C)CCCC(C)(C)C2)ccc2c1C(=O)OC2 [Compound 3, membranolide]	76.8 µM	MBEC90 [1]: < 25 mg/mL
CO[C@H]1O[C@H](OC)c2c1ccc([C@@]1(C)CCCC(C)(C)C1)c2[C@@H](C)C(=O)O [Compound 6, membranoid B]	>133 µM	
COC(=O)[C@H](C)C1=C([C@@]2(C)CCCC(C)(C)C2)CCC2COC(=O)C12 (stereo partly drawn) [Compound 4, tetrahydromembranolide]	64.9 µM	
CC(=O)O[C@@H]1O[C@H](OC(C)=O)[C@H]2C(=O)[C@@H]([C@@]3(C)CCCC(C)(C)C3)CC[C@@H]12 [Compound 19, keto-9, 11-dihydrogracilin A]		MBEC90 [1]: 50 mg/mL
CO[C@H]1O[C@@H](OC)c2c1ccc([C@@]1(C)CCCC(C)(C)C1)c2[C@@H](C)C(=O)O [Compound 9, membranoid E]	95 µM	
CCC1=C(C=O)[C@H](C(=O)OC)CC[C@@H]1[C@@]1(C)CCCC(C)(C)C1 [Compound 17]		MBEC90 [1]: 50 mg/mL
CO[C@@H]1O[C@@H](OC)c2c1ccc([C@@]1(C)CCCC(C)(C)C1)c2[C@@H](C)C(=O)O [Compound 7, membranoid C]	>133 µM	MRSA biofilm bioactivity [1]: lacked MRSA biofilm bioactivity
CC(=O)O[C@@H]1OC2OC(=O)C3=C(C)C([C@@]4(C)CCCC(C)(C)C4)CCC1C32 (stereo partly drawn) [Compound 24, Darwinolide]	20.13 µM	MBEC90 [1]: 35 mg/mL; mammalian (J773) toxicity (J774A.1; J773 cells, mammalian cytotoxicity assay): 73.4 µM; MIC (MRSA): ~133 µM (≈ 50 µg/mL); MIC in a standard biofilm assay (MRSA biofilm): 33.2 µM (≈ 12.5 µg/mL)
C[C@@H](CO)c1c([C@@]2(C)CCCC(C)(C)C2)ccc(CO)c1CO [Compound 20, Mebranolide triol]		MRSA biofilm bioactivity [1]: lacked MRSA biofilm bioactivity
CO[C@@H]1O[C@@H](OC(C)=O)c2ccc([C@@]3(C)CCCC(C)(C)C3)c([C@@H](C)C(=O)O)c21 [Compound 11, membranoid X]	62.9 µM	
